Values quoted from earlier work in patent US20240124428A1, “HETEROCYCLIC INHIBITORS OF PCSK9” (CARDIO THERAPEUTICS PTY LTD, priority 2020, published 2024).
Marks after values point to notes of the source that are not given here.

What was measured:
[1] = target: T1, binding between PCSK9 and the LDL receptor (Homo sapiens, UniProt Q8NBP7); settings: comparator; data from Evison et al. 2020; read-out: PCSK9-LDLR binding assay IC50; cited from earlier work
T1 construct: purchased CircuLex

CYP3A4 = target: T2, CYP3A4 (Homo sapiens, UniProt P08684); settings: data from Evison et al. 2020; cited from earlier work
T2 construct: using human liver microsomes; from tissue; host or cells: human liver microsomes

CYP2D6 = target: T3, CYP2D6 (Homo sapiens, UniProt P10635); settings: data from Evison et al. 2020; cited from earlier work
T3 construct: using human liver microsomes; from tissue; host or cells: human liver microsomes

hERG channel = target: T4, hERG channel (Homo sapiens, UniProt Q12809); settings: data from Evison et al. 2020; cited from earlier work
T4 construct: expressed in transfected cells; host or cells: CHO

HepG2 cells = settings: data from Evison et al. 2020; read-out: HepG2 cytotoxicity IC50; cited from earlier work
[2] = data from Evison et al. 2020; conditions not given; cited from earlier work

T4 sequence (Q12809 whole entry): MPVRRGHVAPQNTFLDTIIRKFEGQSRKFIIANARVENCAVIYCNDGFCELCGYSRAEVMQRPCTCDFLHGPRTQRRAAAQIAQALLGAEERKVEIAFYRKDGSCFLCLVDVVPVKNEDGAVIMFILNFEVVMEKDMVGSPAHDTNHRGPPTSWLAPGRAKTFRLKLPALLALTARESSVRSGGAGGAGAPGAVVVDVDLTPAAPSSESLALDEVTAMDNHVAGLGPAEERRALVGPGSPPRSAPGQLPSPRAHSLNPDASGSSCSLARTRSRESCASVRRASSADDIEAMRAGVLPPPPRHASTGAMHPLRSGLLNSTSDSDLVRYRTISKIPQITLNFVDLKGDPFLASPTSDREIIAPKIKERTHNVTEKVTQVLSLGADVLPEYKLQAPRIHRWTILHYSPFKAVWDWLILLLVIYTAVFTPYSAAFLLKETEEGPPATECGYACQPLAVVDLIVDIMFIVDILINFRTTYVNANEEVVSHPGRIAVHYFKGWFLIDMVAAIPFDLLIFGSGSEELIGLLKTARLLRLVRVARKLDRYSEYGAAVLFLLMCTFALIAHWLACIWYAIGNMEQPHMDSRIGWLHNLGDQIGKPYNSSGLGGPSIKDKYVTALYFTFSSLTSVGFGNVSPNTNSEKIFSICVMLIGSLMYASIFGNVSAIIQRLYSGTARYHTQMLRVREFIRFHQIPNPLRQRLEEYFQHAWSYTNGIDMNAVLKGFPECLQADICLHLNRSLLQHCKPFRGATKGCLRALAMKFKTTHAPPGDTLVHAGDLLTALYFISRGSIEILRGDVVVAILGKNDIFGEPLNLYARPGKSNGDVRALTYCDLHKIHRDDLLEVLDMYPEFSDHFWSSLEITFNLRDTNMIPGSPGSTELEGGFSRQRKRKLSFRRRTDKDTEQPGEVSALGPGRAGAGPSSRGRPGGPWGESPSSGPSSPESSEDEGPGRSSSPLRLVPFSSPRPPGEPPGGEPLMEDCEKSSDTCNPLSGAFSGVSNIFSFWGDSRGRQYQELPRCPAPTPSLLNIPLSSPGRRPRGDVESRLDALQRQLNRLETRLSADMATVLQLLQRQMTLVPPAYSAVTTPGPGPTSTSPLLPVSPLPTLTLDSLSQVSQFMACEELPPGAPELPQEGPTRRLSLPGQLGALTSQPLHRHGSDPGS
T1 sequence (Q8NBP7 153-692): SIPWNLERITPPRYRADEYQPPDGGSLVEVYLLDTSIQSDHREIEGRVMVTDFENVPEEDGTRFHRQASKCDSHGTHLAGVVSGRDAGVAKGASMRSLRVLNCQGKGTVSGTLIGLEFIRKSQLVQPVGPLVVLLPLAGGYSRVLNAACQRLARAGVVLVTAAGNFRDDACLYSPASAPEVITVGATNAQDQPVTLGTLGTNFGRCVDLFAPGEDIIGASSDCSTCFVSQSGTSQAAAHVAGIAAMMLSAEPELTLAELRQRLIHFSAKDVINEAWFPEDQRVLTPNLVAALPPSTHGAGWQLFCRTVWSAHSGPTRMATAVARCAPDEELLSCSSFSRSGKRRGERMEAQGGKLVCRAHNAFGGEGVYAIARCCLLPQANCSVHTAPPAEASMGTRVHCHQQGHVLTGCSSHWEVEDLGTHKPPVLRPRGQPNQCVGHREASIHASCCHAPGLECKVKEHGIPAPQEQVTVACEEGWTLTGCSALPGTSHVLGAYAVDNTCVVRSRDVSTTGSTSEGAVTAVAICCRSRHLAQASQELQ
T1 sequence (Q8NBP7 31-152 partner limits assumed): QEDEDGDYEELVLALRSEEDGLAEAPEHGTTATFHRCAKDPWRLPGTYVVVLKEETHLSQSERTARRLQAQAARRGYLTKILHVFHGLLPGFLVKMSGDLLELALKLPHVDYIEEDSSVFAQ
T3 sequence (P10635 whole entry): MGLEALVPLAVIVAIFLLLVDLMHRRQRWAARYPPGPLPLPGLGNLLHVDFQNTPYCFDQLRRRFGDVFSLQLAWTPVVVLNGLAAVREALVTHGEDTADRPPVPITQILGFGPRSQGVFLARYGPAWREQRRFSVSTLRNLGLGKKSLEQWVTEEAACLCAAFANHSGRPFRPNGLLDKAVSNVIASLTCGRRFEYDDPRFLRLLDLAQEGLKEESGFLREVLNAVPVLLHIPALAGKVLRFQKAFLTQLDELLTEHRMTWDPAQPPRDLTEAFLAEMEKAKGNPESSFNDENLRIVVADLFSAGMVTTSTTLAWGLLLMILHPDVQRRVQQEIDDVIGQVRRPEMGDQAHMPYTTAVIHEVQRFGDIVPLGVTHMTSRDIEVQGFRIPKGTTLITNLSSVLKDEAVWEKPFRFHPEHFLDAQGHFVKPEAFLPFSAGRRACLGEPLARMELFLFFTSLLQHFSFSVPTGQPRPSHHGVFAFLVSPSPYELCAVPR
T2 sequence (P08684 whole entry): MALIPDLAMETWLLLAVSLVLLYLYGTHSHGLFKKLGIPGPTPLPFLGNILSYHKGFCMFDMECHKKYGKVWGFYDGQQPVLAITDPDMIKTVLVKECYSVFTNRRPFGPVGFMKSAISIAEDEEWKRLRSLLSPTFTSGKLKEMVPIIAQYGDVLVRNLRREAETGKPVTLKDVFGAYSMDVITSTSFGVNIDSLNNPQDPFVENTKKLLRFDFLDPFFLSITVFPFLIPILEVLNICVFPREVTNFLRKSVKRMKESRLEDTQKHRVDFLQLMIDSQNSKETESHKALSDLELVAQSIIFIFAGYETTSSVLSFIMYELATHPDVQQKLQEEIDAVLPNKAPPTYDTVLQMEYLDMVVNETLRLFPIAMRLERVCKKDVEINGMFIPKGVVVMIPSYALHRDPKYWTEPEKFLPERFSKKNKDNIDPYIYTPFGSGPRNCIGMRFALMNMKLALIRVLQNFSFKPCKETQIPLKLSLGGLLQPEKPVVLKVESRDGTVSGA

## Cc1cn(-c2cc(CN3CCC[C@H](N)C3)cc(NC(=O)c3ccc(C)c(Oc4ccccc4)c3)c2)cn1 [3f]
[1]
  IC50: 0.939 µM
CYP3A4
  CYP3A4 (% inhibition at 10 μM): 95.0%
CYP2D6
  CYP2D6 (% inhibition at 10 μM): 82.2%
hERG channel
  IC50: 19 µM
HepG2 cells
  IC50: 5.23 µM
[2]
  AUClast (h*ng/ml): 92.3** h*ng/ml
  Bioavailability (%): 0.5** %
  CMax (ng/ml): 52.5** ng/ml
  VSS (L/kg): 3.87** L/kg
